US8216644B2, “Controlling wood staining and color during post-harvest processing” (Purdue Research Foundation, priority 2006, dated 2012)

Legend:
[1] = tested on: freshly cut black walnut wood
[2] = tested on: freshly cut sugar maple wood; experiment: test strip assay on freshly cut wood, sugar maple

NC(N)=O.OO [hydrogen peroxide urea adduct]
staining of wood ([1]; 0.5 and 1.0% (w:w) concentration range, FIG. 4): visible staining | staining of wood (experimental spots) ([1]; test strips 0.5, 1.0, 5.0 and 10% (w:w), FIG. 2): visible on top of the background staining | staining of wood at 10% ([2]; 10% (w:w), FIG. 1): chemical breakdown of the staining due to bulk oxidation | background gray scale values (bg), relative darkness ([2]; image analysis of FIG. 3, plot profile, FIG. 5): increase in wood darkening with increasing hydrogen peroxide urea adduct concentrations | concentration range in which the staining reaction appears saturated ([2]; test strips 0, 0.5, 1.0, 5.0 and 10% (w:w), FIG. 1): 0.5-1.0% | staining reaction over concentration range ([2]; test strips 0.05, 0.1, 0.5 and 1.0% (w:w), FIG. 3): shows a dose response curve
